The values below come from patent US20150038545A1, “HYDROXYPHENYL PYRROLE COMPOUNDS CONTAINING AN HYDROXAMIC ACID AS HDAC INHIBITORS AND MEDICINAL APPLICATIONS THEREOF” (UNIVERSIDAD DEL PAÍS VASCO, priority 2011, published 2015).

Type in all cases: biochemical
One assay addresses T1, Human HDAC2 (Homo sapiens, UniProt Q92769).
T1 construct: Full length with C-terminal His tag, MW=60 kDa; His (C); purchased BioMol SE-500; host or cells: Sf9 cells, baculovirus
Briefly: In vitro HDAC2 inhibition, fluorogenic peptide assay. To be noted: for IC50: read-out: IC50 (nM) of enzyme activity HDAC2. The method, then:
(§1) All HDAC assays were performed using acetylated AMC-labeled peptide substrate: • Substrate for isoforms HDAC1, 2, 3, 4, 5, 6, 7, 9, 10, 11 and HeLa nuclear extract assays: Acetylated fluorogenic peptide from p53 residues 379-382 (RHKKAc) (BioMol. Cat. # KI-104). • Substrate for HDAC8 assays: Acetylated fluorogenic peptide from p53 residues 379-382 (RHKAcKAc) (BioMol. Cat. # KI-178).
(§2) Enzymes: • HDAC1 assay: 75 nM Human HDAC1 (GenBank Accession No. NM_004964): Full length with C-terminal GST tag, MW=79.9 kDa, expressed by baculovirus expression system in Sf9 cells (BioMol. Cat. # SE-456). • HDAC2 assay: 5 nM Human HDAC2 (GenBank Accession No. Q92769): Full length with C-terminal His tag, MW=60 kDa, expressed by baculovirus expression system in Sf9 cells (BioMol. Cat. # SE-500). • HDAC3 assay: 2.3 nM Human HDAC3/NcoR2 (GenBank Accession No. NM_003883 for HDAC3, GenBank Accession No.NM_006312 for NcoR2): Complex of human HDAC3, full length with C-terminal His tag, MW=49.7 kDa, and human NCOR2, N-terminal GST tag, MW=39 kDa, co-expressed in baculovirus expression system (BioMol. Cat. # SE-507). • HDAC4 assay: 266 nM Human HDAC4 (GenBank Accession No. NM_006037): Amino acids 627-1085 with N-terminal GST tag, MW=75.2 kDa, expressed in baculovirus expression system (BioMol, Hamburg, Germany). • HDAC5 assay: 588 nM Human HDAC5 (GenBank Accession No. NM_001015053): Full length with Nterminal GST tag, MW=150 kDa, expressed by baculovirus expression system in Sf9 cells (BioMol, Hamburg, Germany). • HDAC6 assay: 13 nM Human HDAC6 (GenBank Accession No. BC069243): Full length with N-terminal GST tag, MW=159 kDa, expressed by baculovirus expression system in Sf9 cells (BioMol. Cat. # SE-508). • HDAC7 assay: 962 nM Human HDAC7 (GenBank Accession No. AY302468): Amino acids 518-end with N-terminal GST tag, MW=78 kDa, expressed in baculovirus expression system (BioMol, Hamburg, Germany). • HDAC8 assay: 119 nM Human HDAC8 (GenBank Accession No. NM018486): Full length, MW=42 kDa, expressed in an E. coli expression system (BioMol. Cat. # SE-145). • HDAC9 assay: 986 nM Human HDAC9 (GenBank Accession No. NM178423): Amino acids 604-1066 with C-terminal His tag, MW=50.7 kDa, expressed in baculovirus expression system (BioMol, Hamburg, Germany). • HDAC10 assay: 781 nM Human HDAC10 (GenBank Accession No. NM_032019): Amino acids 1-631 with Nterminal GST tag, MW=96 kDa, expressed by baculovirus expression system in Sf9 cells (BioMol. Cat. # SE-559). • HDAC11 assay: 781 nM Human HDAC11 (GenBank Accession No. NM_BC009676) with N-terminal GST tag, MW=66 kDa, expressed in baculovirus expression system (BioMol. Cat. # SE-560). • HeLaNuclear Extract assay: 25 ng/μl Nuclear Extract from HeLa Cells: Prepared by high salt extraction of HeLa nuclei (human cervical cancer cell line), this extract is a rich source of HDAC activity (BioMol. Cat. # KI-140).
(§3) The reactions were carried out in a 96-well microplate for fluorometry in a 50 μl reaction volume. After the deacetylation reaction, Fluor-de-Lys-Developer (BioMol Cat. # KI-105) was added to each well to digest the deacetylated substrate, thus producing the fluorescent signal. The reaction was allowed to develop for 45 minutes at 30° C. with 5% CO2; then the fluorescent signal was measured with an excitation wavelength at 360 nm and an emission wavelength at 460 nm in a microplate-reading fluorometer (GeminiXS; Molecular Devices, Sunnyvale, Calif.). […] All experiments were performed in triplicate. IC50 was calculated by fitting the experimental data to a dose-response curve. DMSO was used as negative control; Trichostatin A (Biomol Cat. # GR-309) was used as positive control inhibitor.

For the next assay, the target named is T2, Human HDAC1 (Homo sapiens, UniProt Q13547).
T2 construct: Full length with C-terminal GST tag, MW=79.9 kDa; GST (C); purchased BioMol SE-456; host or cells: Sf9 cells, baculovirus
T2 sequence (Q13547 whole entry): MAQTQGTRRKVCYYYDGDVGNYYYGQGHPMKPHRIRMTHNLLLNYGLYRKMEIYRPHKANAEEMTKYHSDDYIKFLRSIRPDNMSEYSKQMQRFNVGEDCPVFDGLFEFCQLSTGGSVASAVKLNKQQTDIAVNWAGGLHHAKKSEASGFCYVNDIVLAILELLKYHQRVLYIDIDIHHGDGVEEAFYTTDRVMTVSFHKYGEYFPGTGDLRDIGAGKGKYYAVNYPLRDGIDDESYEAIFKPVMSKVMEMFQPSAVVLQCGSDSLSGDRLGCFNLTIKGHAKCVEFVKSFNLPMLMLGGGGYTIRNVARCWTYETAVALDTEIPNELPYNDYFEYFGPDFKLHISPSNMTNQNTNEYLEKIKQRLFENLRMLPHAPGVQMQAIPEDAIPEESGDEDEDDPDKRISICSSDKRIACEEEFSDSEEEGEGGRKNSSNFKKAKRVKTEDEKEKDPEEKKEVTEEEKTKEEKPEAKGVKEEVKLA
Description: In vitro HDAC1 inhibition, fluorogenic peptide assay. To be noted: for IC50: read-out: IC50 (nM) of enzyme activity HDAC1. As to the method: as §1, §2, §3

A further assay has as its target T3, Human HDAC3/NcoR2 (Homo sapiens, UniProt O15379).
T3 construct: Complex of human HDAC3, full length with C-terminal His tag, MW=49.7 kDa; His (C); purchased BioMol SE-507
Description: In vitro HDAC3 inhibition, fluorogenic peptide assay. Particulars: for IC50: read-out: IC50 (nM) of enzyme activity HDAC3. As to the method: as §1, §2, §3

T3 sequence (O15379 whole entry): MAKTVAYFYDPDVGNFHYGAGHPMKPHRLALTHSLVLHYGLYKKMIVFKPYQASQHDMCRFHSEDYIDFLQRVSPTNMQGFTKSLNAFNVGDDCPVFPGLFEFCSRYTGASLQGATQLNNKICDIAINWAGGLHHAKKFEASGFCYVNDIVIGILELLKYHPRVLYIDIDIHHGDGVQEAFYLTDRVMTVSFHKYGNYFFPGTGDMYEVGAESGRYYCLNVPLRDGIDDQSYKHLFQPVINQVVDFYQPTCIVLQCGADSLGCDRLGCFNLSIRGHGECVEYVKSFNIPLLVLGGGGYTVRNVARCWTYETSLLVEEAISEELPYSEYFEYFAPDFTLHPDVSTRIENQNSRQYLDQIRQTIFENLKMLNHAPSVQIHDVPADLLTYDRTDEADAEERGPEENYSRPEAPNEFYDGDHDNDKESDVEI
T3 sequence (Q9Y618 395-489 partner limits assumed): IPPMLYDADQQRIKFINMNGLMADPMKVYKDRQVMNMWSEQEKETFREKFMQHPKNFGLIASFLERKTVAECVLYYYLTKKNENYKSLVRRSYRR
T1 sequence (Q92769 whole entry): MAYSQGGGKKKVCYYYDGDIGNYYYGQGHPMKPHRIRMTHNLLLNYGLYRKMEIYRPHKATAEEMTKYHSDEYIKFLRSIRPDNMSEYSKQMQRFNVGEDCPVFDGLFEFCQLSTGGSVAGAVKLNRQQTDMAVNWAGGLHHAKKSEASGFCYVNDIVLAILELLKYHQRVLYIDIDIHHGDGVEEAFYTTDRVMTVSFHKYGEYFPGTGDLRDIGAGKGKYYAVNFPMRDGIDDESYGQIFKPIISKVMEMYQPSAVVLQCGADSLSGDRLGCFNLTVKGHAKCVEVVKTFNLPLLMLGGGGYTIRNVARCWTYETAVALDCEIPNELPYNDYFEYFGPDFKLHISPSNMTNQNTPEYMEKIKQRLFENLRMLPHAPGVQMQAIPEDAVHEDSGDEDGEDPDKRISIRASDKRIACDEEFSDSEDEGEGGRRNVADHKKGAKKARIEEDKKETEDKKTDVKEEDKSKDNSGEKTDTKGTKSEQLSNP

For the molecule `COc1ccc(-c2cc(-c3ccccc3)[nH]c2C(=O)NCCCCCC(=O)NO)cc1` [Compound A, N-[6-(hydroxyamino)-6-oxohexyl]-3-(4-methoxyphenyl)-5-phenyl-1H-pyrrole-2-carboxamide, reference compound], at Human HDAC2, the “Selectivity against HDAC6 (IC50 HDACx/IC50 HDAC6) HDAC2” value amounted to 64.7 and the half-maximal inhibitory concentration (IC50) was 1290 nM. In addition, on Human HDAC1, the “Selectivity against HDAC6 (IC50 HDACx/IC50 HDAC6) HDAC1” value amounted to 23.2 and the 50% inhibitory concentration (IC50) was determined as 464 nM. Also, at Human HDAC3/NcoR2, the “Selectivity against HDAC6 (IC50 HDACx/IC50 HDAC6) HDAC3” value turned out to be 28.6 and the IC50 is 572 nM.

Consider `COc1ccc(-c2cc(-c3ccccc3)c(C(=O)NCCCCCC(=O)NO)[nH]2)cc1` [Compound B, N-[6-(hydroxyamino)-6-oxohexyl]-5-(4-methoxyphenyl)-3-phenyl-1H-pyrrole-2-carboxamide, reference compound], for which, on Human HDAC2, the “Selectivity against HDAC6 (IC50 HDACx/IC50 HDAC6) HDAC2” value was determined as 28.7 and the IC50 was determined as 918 nM. Moreover, on Human HDAC1, the “Selectivity against HDAC6 (IC50 HDACx/IC50 HDAC6) HDAC1” value is listed as 8.6 and the IC50 worked out at 276 nM. Moreover, on Human HDAC3/NcoR2, the “Selectivity against HDAC6 (IC50 HDACx/IC50 HDAC6) HDAC3” value was determined as 13.0 and the half-inhibitory concentration (IC50) worked out at 415 nM.

Consider `O=C(CCCCCNC(=O)c1[nH]c(-c2ccccc2)cc1-c1ccc(O)cc1)NO` [Example 1, N-(6-(hydroxyamino)-6-oxohexyl)-3-(4-hydroxyphenyl)-5-phenyl-1H-pyrrole-2-carboxamide], for which, on Human HDAC2, the “Selectivity against HDAC6 (IC50 HDACx/IC50 HDAC6) HDAC2” value is reported as 81.1 and the IC50 came out at 1140 nM. Also, at Human HDAC1, the “Selectivity against HDAC6 (IC50 HDACx/IC50 HDAC6) HDAC1” value is reported as 25.3 and the IC50 came out at 354 nM. Also, on Human HDAC3/NcoR2, the “Selectivity against HDAC6 (IC50 HDACx/IC50 HDAC6) HDAC3” value is given as 31.2 and the IC50 turned out to be 437 nM.

Consider `O=C(CCCCCNC(=O)c1[nH]c(-c2ccc(O)cc2)cc1-c1ccccc1)NO` [Example 2, N-(6-(hydroxyamino)-6-oxohexyl)-5-(4-hydroxyphenyl)-3-phenyl-1H-pyrrole-2-carboxamide], for which, at Human HDAC2, the “Selectivity against HDAC6 (IC50 HDACx/IC50 HDAC6) HDAC2” value was 52.1 and the concentration for half-maximal inhibition (IC50) is 396 nM. On Human HDAC1, the “Selectivity against HDAC6 (IC50 HDACx/IC50 HDAC6) HDAC1” value came out at 20.1 and the half-maximal inhibitory concentration (IC50) came out at 153 nM. Also, on Human HDAC3/NcoR2, the “Selectivity against HDAC6 (IC50 HDACx/IC50 HDAC6) HDAC3” value is reported as 32.9 and the half-inhibitory concentration (IC50) turned out to be 250 nM.

Take `O=C(CCCCCNC(=O)c1[nH]c(-c2ccsc2)cc1-c1ccc(O)cc1)NO` [Example 3, N-(5-(hydroxycarbamoyl)pentyl)-3-(4-hydroxyphenyl)-5-(3-thienyl)-1H-pyrrole-2-carboxamide]: the IC50 at Human HDAC2 was determined as 1270 nM; on Human HDAC1, 438 nM; at Human HDAC3/NcoR2 it was 441 nM.

On to `O=C(CCCCCNC(=O)c1[nH]c(-c2ccoc2)cc1-c1ccc(O)cc1)NO` [Example 4, 5-(3-furyl)-N-(5-(Hydroxycarbamoyl)pentyl)-3-(4-hydroxy-phenyl)-1H-pyrrole-2-carboxamide], for which the IC50 at Human HDAC2 stood at 864 nM; on Human HDAC1, 353 nM; at Human HDAC3/NcoR2 it was 341 nM.

As for `O=C(CCCCCNC(=O)c1[nH]c(-c2ccc(O)cc2)cc1-c1ccoc1)NO` [Example 5, 3-(3-furyl)-N-(5-(hydroxycarbamoyl)pentyl)-5-(4-hydroxy-phenyl)-1H-pyrrole-2-carboxamide], the IC50 on Human HDAC2 was 56 nM; at Human HDAC1, 19 nM; at Human HDAC3/NcoR2 it was 20 nM.

As for `O=C(CCCCCNC(=O)c1[nH]c(-c2ccc(O)cc2)cc1-c1ccsc1)NO` [Example 6, N-(5-(hydroxycarbamoyl)pentyl)-5-(4-hydroxyphenyl)-3-(3-thienyl)-1H-pyrrole-2-carboxamide], the half-inhibitory concentration (IC50) is 203 nM at Human HDAC2, 49 nM on Human HDAC1 and 71 nM on Human HDAC3/NcoR2.

What is called IC50 is the concentration at which inhibition is half-maximal.
